In article PMC5218480 (PLoS ONE, 2017):

Test system: MV-4-11 cells
Experiment: Gene expression microarray analysis (Affymetrix PrimeView) and GSEA
Assay type: cell-based, human
Parameters: RFU PODN (11730768_x_at) / Fold change /veh PODN (11730768_x_at) / RFU LINC00158 (11744669_a_at) / Fold change /veh LINC00158 (11744669_a_at) / RFU DUSP10 (11751237_a_at) / Fold change /veh DUSP10 (11751237_a_at) / RFU ID3 (11757404_x_at) / Fold change /veh ID3 (11757404_x_at) / RFU PLEKHG5 (11737974_s_at) / Fold change /veh PLEKHG5 (11737974_s_at) / RFU LRRC4B (11730491_at) / Fold change /veh LRRC4B (11730491_at) / RFU GIMAP4 (11747438_a_at) / Fold change /veh GIMAP4 (11747438_a_at) / RFU KRT8 (11758183_x_at) / Fold change /veh KRT8 (11758183_x_at) / RFU CNN1 (11734310_a_at) / Fold change /veh CNN1 (11734310_a_at) / RFU VPS37D (11726825_at) / Fold change /veh VPS37D (11726825_at) / RFU C10orf10 (11716522_x_at) / Fold change /veh C10orf10 (11716522_x_at) / RFU KIR2DL2 /// KIR2DL4 /// KIR2DL5A /// KIR2DL5B /// KIR2DS1 /// KIR2DS2 /// KIR2DS3 /// KIR2DS4 /// KIR3DL3 /// KIR3DL3 /// KIR3DS1 (11738374_at) / Fold change /veh KIR2DL2 /// KIR2DL4 /// KIR2DL5A /// KIR2DL5B /// KIR2DS1 /// KIR2DS2 /// KIR2DS3 /// KIR2DS4 /// KIR3DL3 /// KIR3DL3 /// KIR3DS1 (11738374_at) / RFU C1QL1 (11718748_at) / Fold change /veh C1QL1 (11718748_at) / RFU TMPRSS4 (11747572_a_at) / Fold change /veh TMPRSS4 (11747572_a_at) / RFU HAMP (11756126_x_at) / Fold change /veh HAMP (11756126_x_at) / RFU RNFT2 (11725882_a_at) / Fold change /veh RNFT2 (11725882_a_at) / RFU NR4A2 (11747474_a_at) / Fold change /veh NR4A2 (11747474_a_at) / RFU ABCC12 (11746883_a_at) / Fold change /veh ABCC12 (11746883_a_at) / RFU TMEM136 (11760407_x_at) / Fold change /veh TMEM136 (11760407_x_at) / RFU CLDN22 /// WWC2 (11732394_at) / Fold change /veh CLDN22 /// WWC2 (11732394_at) / RFU HLA-DPB1 (11760878_x_at) / Fold change /veh HLA-DPB1 (11760878_x_at) / RFU SPINT1 (11716480_a_at) / Fold change /veh SPINT1 (11716480_a_at) / RFU GAP43 (11754022_s_at) / Fold change /veh GAP43 (11754022_s_at) / RFU A4GNT (11735810_at) / Fold change /veh A4GNT (11735810_at) / RFU PRB3 (11715151_x_at) / Fold change /veh PRB3 (11715151_x_at) / RFU TUBB4B (11761932_at) / Fold change /veh TUBB4B (11761932_at) / RFU CAPN14 (11732068_a_at) / Fold change /veh CAPN14 (11732068_a_at) / RFU TMCC2 (11721928_a_at) / Fold change /veh TMCC2 (11721928_a_at) / RFU IRGQ (11745062_a_at) / Fold change /veh IRGQ (11745062_a_at) / RFU FAM174B (11720279_a_at) / Fold change /veh FAM174B (11720279_a_at) / RFU TMPRSS4 (11748680_a_at) / Fold change /veh TMPRSS4 (11748680_a_at) / RFU FAM212B (11763350_a_at) / Fold change /veh FAM212B (11763350_a_at) / RFU PLEKHG5 (11743358_a_at) / Fold change /veh PLEKHG5 (11743358_a_at) / RFU ZSCAN30 (11745921_a_at) / Fold change /veh ZSCAN30 (11745921_a_at) / RFU CMKLR1 (11741424_a_at) / Fold change /veh CMKLR1 (11741424_a_at) / RFU LOC101060620 /// MAPK8IP1 (11723275_at) / Fold change /veh LOC101060620 /// MAPK8IP1 (11723275_at) / RFU SPTSSB (11747773_x_at) / Fold change /veh SPTSSB (11747773_x_at) / RFU PRSS12 (11739890_at) / Fold change /veh PRSS12 (11739890_at) / RFU BIN1 (11741810_x_at) / Fold change /veh BIN1 (11741810_x_at) / RFU WNT11 (11732464_a_at) / Fold change /veh WNT11 (11732464_a_at) / RFU C10orf10 (11716521_a_at) / Fold change /veh C10orf10 (11716521_a_at) / RFU C5orf56 (11738089_at) / Fold change /veh C5orf56 (11738089_at) / RFU CYB561 (11721691_x_at) / Fold change /veh CYB561 (11721691_x_at) / RFU ANKRD19P (11752326_a_at) / Fold change /veh ANKRD19P (11752326_a_at) / RFU OR2T12 /// OR2T33 /// OR2T8 (11738714_s_at) / Fold change /veh OR2T12 /// OR2T33 /// OR2T8 (11738714_s_at) / RFU VCAN (11748164_a_at) / Fold change /veh VCAN (11748164_a_at) / RFU JSRP1 (11732532_at) / Fold change /veh JSRP1 (11732532_at) / RFU KRTAP10-11 (11738290_x_at) / Fold change /veh KRTAP10-11 (11738290_x_at) / RFU MYO3A (11730013_a_at) / Fold change /veh MYO3A (11730013_a_at) / RFU EBF3 (11725865_a_at) / Fold change /veh EBF3 (11725865_a_at) / RFU CAMK2N1 (11719241_x_at) / Fold change /veh CAMK2N1 (11719241_x_at) / RFU C5orf56 (11738088_a_at) / Fold change /veh C5orf56 (11738088_a_at) / RFU OLFML3 (11715873_a_at) / Fold change /veh OLFML3 (11715873_a_at) / RFU LOC100653217 /// NTM (11731650_a_at) / Fold change /veh LOC100653217 /// NTM (11731650_a_at) / RFU MAPK11 (11762145_a_at) / Fold change /veh MAPK11 (11762145_a_at) / RFU FIZ1 (11724087_x_at) / Fold change /veh FIZ1 (11724087_x_at) / RFU OASL (11726364_x_at) / Fold change /veh OASL (11726364_x_at) / RFU SOX15 (11748057_x_at) / Fold change /veh SOX15 (11748057_x_at) / RFU CD79A (11719716_a_at) / Fold change /veh CD79A (11719716_a_at) / RFU HIST1H1D (11736915_at) / Fold change /veh HIST1H1D (11736915_at) / RFU CASKIN2 (11723855_a_at) / Fold change /veh CASKIN2 (11723855_a_at) / RFU LOC730098 (11760151_x_at) / Fold change /veh LOC730098 (11760151_x_at) / RFU OR4N2 (11742367_at) / Fold change /veh OR4N2 (11742367_at) / RFU PRRT2 (11749266_a_at) / Fold change /veh PRRT2 (11749266_a_at) / RFU SNX32 (11753110_a_at) / Fold change /veh SNX32 (11753110_a_at) / RFU CDHR5 (11726645_a_at) / Fold change /veh CDHR5 (11726645_a_at) / RFU RCAN1 (11760418_a_at) / Fold change /veh RCAN1 (11760418_a_at) / RFU FAM167A (11723789_a_at) / Fold change /veh FAM167A (11723789_a_at) / RFU FAM26E (11764081_at) / Fold change /veh FAM26E (11764081_at) / RFU ISYNA1 (11749810_s_at) / Fold change /veh ISYNA1 (11749810_s_at) / RFU ACY1 (11761880_at) / Fold change /veh ACY1 (11761880_at) / RFU 11764098_at / Fold change /veh 11764098_at / RFU SAMD14 (11745864_x_at) / Fold change /veh SAMD14 (11745864_x_at) / RFU NPB (11741838_a_at) / Fold change /veh NPB (11741838_a_at) / RFU TMPRSS6 (11731388_a_at) / Fold change /veh TMPRSS6 (11731388_a_at) / RFU KRTAP10-2 (11738614_at) / Fold change /veh KRTAP10-2 (11738614_at) / RFU ARHGAP8 /// PRR5-ARHGAP8 (11727945_x_at) / Fold change /veh ARHGAP8 /// PRR5-ARHGAP8 (11727945_x_at) / RFU KRTAP5-7 /// NADSYN1 (11734609_at) / Fold change /veh KRTAP5-7 /// NADSYN1 (11734609_at) / RFU RASL12 (11751679_a_at) / Fold change /veh RASL12 (11751679_a_at) / RFU CDKN2B (11736163_a_at) / Fold change /veh CDKN2B (11736163_a_at) / RFU PRF1 (11729649_at) / Fold change /veh PRF1 (11729649_at) / RFU, ZNF638 /// ZNF638-IT1 / Fold change vs veh, ZNF638 /// ZNF638-IT1 / RFU, PANK3 / Fold change vs veh, PANK3 / RFU, SH3YL1 / Fold change vs veh, SH3YL1 / RFU, ZEB2 / Fold change vs veh, ZEB2 / RFU, NRIP1 / Fold change vs veh, NRIP1 / RFU, PTTG1IP / Fold change vs veh, PTTG1IP / RFU, CAPN2 / Fold change vs veh, CAPN2 / RFU, MED14 / Fold change vs veh, MED14 / RFU, SNORA58 / Fold change vs veh, SNORA58 / RFU, C1orf63 / Fold change vs veh, C1orf63 / RFU, LRRFIP1 / Fold change vs veh, LRRFIP1 / RFU, NDUFAF7 / Fold change vs veh, NDUFAF7 / RFU, SLC12A2 / Fold change vs veh, SLC12A2 / RFU, IBTK / Fold change vs veh, IBTK / RFU, ESF1 / Fold change vs veh, ESF1 / Fold change vs veh, TMEM50B / RFU, TAOK1 / Fold change vs veh, TAOK1 / RFU, ACBD3 / Fold change vs veh, ACBD3 / RFU, TMA16 / Fold change vs veh, TMA16 / RFU, RWDD3 / Fold change vs veh, RWDD3 / RFU, BCAT1 / Fold change vs veh, BCAT1 / RFU, EDEM3 / Fold change vs veh, EDEM3 / RFU, TMEM33 / Fold change vs veh, TMEM33 / RFU, WDR75 / Fold change vs veh, WDR75 / RFU, AHCTF1 / Fold change vs veh, AHCTF1 / RFU, TFRC / Fold change vs veh, TFRC / RFU, ZDHHC17 / Fold change vs veh, ZDHHC17 / RFU, NOM1 / Fold change vs veh, NOM1 / RFU, ARL8B / Fold change vs veh, ARL8B / RFU, ZBTB11 / Fold change vs veh, ZBTB11 / RFU, TAMM41 / Fold change vs veh, TAMM41 / RFU, KIAA1704 /// LOC100996395 / Fold change vs veh, KIAA1704 /// LOC100996395 / RFU, ING1 / Fold change vs veh, ING1 / RFU, TRMT61B / Fold change vs veh, TRMT61B / RFU, FUBP3 / Fold change vs veh, FUBP3 / RFU, TP53 / Fold change vs veh, TP53 / RFU, TNKS2 / Fold change vs veh, TNKS2 / RFU, ZFP14 / Fold change vs veh, ZFP14 / RFU, ACTR2 / Fold change vs veh, ACTR2 / RFU, PPP3R1 / Fold change vs veh, PPP3R1 / RFU, PIK3R1 / Fold change vs veh, PIK3R1 / RFU, HNRNPA1 / Fold change vs veh, HNRNPA1 / RFU, RNF170 / Fold change vs veh, RNF170 / RFU, ZNF28 / Fold change vs veh, ZNF28 / RFU, RNGTT / Fold change vs veh, RNGTT / RFU, OGT / Fold change vs veh, OGT / RFU, BRD1 / Fold change vs veh, BRD1 / RFU, MARS / Fold change vs veh, MARS / RFU, ZNF655 / Fold change vs veh, ZNF655 / RFU, FAHD1 / Fold change vs veh, FAHD1 / RFU, BDP1 / Fold change vs veh, BDP1 / RFU, LRRCC1 / Fold change vs veh, LRRCC1 / RFU, ARID1A / Fold change vs veh, ARID1A / RFU, ZNF146 / Fold change vs veh, ZNF146 / RFU, ZNF330 / Fold change vs veh, ZNF330 / RFU, GPN3 / Fold change vs veh, GPN3 / RFU, C9orf123 / Fold change vs veh, C9orf123 / RFU, N4BP2L2 / Fold change vs veh, N4BP2L2 / RFU, ARFIP1 / Fold change vs veh, ARFIP1 / RFU, FAM179B / Fold change vs veh, FAM179B / RFU, BCL10 / Fold change vs veh, BCL10 / RFU, UHRF1BP1L / Fold change vs veh, UHRF1BP1L / RFU, BET1 / Fold change vs veh, BET1 / RFU, CNOT2 / Fold change vs veh, CNOT2 / RFU, ZNF268 / Fold change vs veh, ZNF268 / Fold change vs veh, ZNF507 / RFU, DGCR2 / Fold change vs veh, DGCR2 / RFU, WDSUB1 / Fold change vs veh, WDSUB1 / Fold change vs veh, HSP90B1 /// MIR3652 / RFU, ADSS / Fold change vs veh, ADSS / RFU, GK / Fold change vs veh, GK / RFU, ZNF148 / Fold change vs veh, ZNF148 / RFU, TAF9 / Fold change vs veh, TAF9 / RFU, SLC1A5 / Fold change vs veh, SLC1A5 / RFU, SLMO2 / Fold change vs veh, SLMO2 / RFU, ABCC4 / Fold change vs veh, ABCC4 / RFU, LOC101060439 /// RAP1B / Fold change vs veh, LOC101060439 /// RAP1B / RFU, RFX7 / Fold change vs veh, RFX7 / RFU, GTPBP10 / Fold change vs veh, GTPBP10 / RFU, CNEP1R1 / Fold change vs veh, CNEP1R1 / RFU, BIVM-ERCC5 /// ERCC5 / Fold change vs veh, BIVM-ERCC5 /// ERCC5 / RFU, ILF3 / Fold change vs veh, ILF3 / RFU 11762660_at / Fold change /veh 11762660_at / RFU VCAN (11757783_s_at) / Fold change /veh VCAN (11757783_s_at) / RFU DDX43 (11728927_at) / Fold change /veh DDX43 (11728927_at) / RFU KRT8 (11758188_x_at) / Fold change /veh KRT8 (11758188_x_at) / RFU NKD1 (11759106_at) / Fold change /veh NKD1 (11759106_at) / RFU SRD5A1 (11742802_a_at) / Fold change /veh SRD5A1 (11742802_a_at) / RFU TPSAB1 /// TPSB2 (11721975_s_at) / Fold change /veh TPSAB1 /// TPSB2 (11721975_s_at) / RFU GSTM3 (11746129_a_at) / Fold change /veh GSTM3 (11746129_a_at) / RFU IL23R (11737362_x_at) / Fold change /veh IL23R (11737362_x_at) / RFU TMEM51 (11727254_a_at) / Fold change /veh TMEM51 (11727254_a_at) / RFU PIWIL2 (11732686_x_at) / Fold change /veh PIWIL2 (11732686_x_at) / RFU ORM1 (11744905_x_at) / Fold change /veh ORM1 (11744905_x_at) / RFU CCDC152 (11743942_at) / Fold change /veh CCDC152 (11743942_at) / RFU ECM1 (11717891_a_at) / Fold change /veh ECM1 (11717891_a_at) / RFU IL23R (11748794_a_at) / Fold change /veh IL23R (11748794_a_at) / RFU TNFAIP8L3 (11732012_x_at) / Fold change /veh TNFAIP8L3 (11732012_x_at) / RFU MBOAT4 (11741988_at) / Fold change /veh MBOAT4 (11741988_at) / RFU 11764193_at / Fold change /veh 11764193_at / RFU TMEM53 (11763286_at) / Fold change /veh TMEM53 (11763286_at) / RFU MAGEB2 (11727129_at) / Fold change /veh MAGEB2 (11727129_at) / RFU TMEM200A (11744735_a_at) / Fold change /veh TMEM200A (11744735_a_at) / RFU CCDC152 (11751479_a_at) / Fold change /veh CCDC152 (11751479_a_at) / RFU FAM211A (11726209_a_at) / Fold change /veh FAM211A (11726209_a_at) / RFU RGS16 (11746705_a_at) / Fold change /veh RGS16 (11746705_a_at) / RFU VCAN (11755009_s_at) / Fold change /veh VCAN (11755009_s_at) / RFU RHOB (11743442_s_at) / Fold change /veh RHOB (11743442_s_at) / RFU RGS16 (11720943_a_at) / Fold change /veh RGS16 (11720943_a_at) / RFU RGS16 (11720944_at) / Fold change /veh RGS16 (11720944_at) / RFU, VPS4B / Fold change vs veh, VPS4B / RFU, CREB1 / Fold change vs veh, CREB1 / RFU, DNAJC13 / Fold change vs veh, DNAJC13 / RFU, GNAQ / Fold change vs veh, GNAQ / RFU, CDK5R1 / Fold change vs veh, CDK5R1 / RFU, ZRANB3 / Fold change vs veh, ZRANB3 / RFU, CUL4A / Fold change vs veh, CUL4A / RFU, CCNY / Fold change vs veh, CCNY / RFU, UFL1 / Fold change vs veh, UFL1 / RFU, COG3 / Fold change vs veh, COG3 / RFU, DIAPH2 / Fold change vs veh, DIAPH2 / RFU, SKA2 / Fold change vs veh, SKA2 / RFU, AFF3 / Fold change vs veh, AFF3 / RFU, LMF1 / Fold change vs veh, LMF1 / RFU, IPO11 / Fold change vs veh, IPO11 / RFU, DFFB / Fold change vs veh, DFFB / RFU, FOXP1 / Fold change vs veh, FOXP1 / RFU, CARD8 / Fold change vs veh, CARD8 / RFU, STRN3 / Fold change vs veh, STRN3 / RFU, ADK / Fold change vs veh, ADK / RFU, RASSF2 / Fold change vs veh, RASSF2 / RFU, WIPF1 / Fold change vs veh, WIPF1 / RFU, LARP1B / Fold change vs veh, LARP1B / RFU, RASA1 / Fold change vs veh, RASA1 / RFU, RB1 / Fold change vs veh, RB1 / RFU, PPFIA1 / Fold change vs veh, PPFIA1 / RFU, MAT2A / Fold change vs veh, MAT2A / RFU, CCT5 / Fold change vs veh, CCT5 / RFU, WDR92 / Fold change vs veh, WDR92 / RFU, CUX1 / Fold change vs veh, CUX1 / RFU, TTC7A / Fold change vs veh, TTC7A / RFU, TMEM135 / Fold change vs veh, TMEM135 / RFU, DEPTOR / Fold change vs veh, DEPTOR / RFU, CPM / Fold change vs veh, CPM / RFU, DNAJB6 / Fold change vs veh, DNAJB6 / RFU, CACNA2D3 / Fold change vs veh, CACNA2D3 / RFU, DTX4 / Fold change vs veh, DTX4 / RFU, TFCP2 / Fold change vs veh, TFCP2 / RFU, GMCL1 /// GMCL1P1 / Fold change vs veh, GMCL1 /// GMCL1P1 / RFU, AEBP2 / Fold change vs veh, AEBP2 / RFU, SNHG1 /// SNORD22 /// SNORD25 /// SNORD26 /// SNORD27 /// SNORD28 /// SNORD29 /// SNORD31 / Fold change vs veh, SNHG1 /// SNORD22 /// SNORD25 /// SNORD26 /// SNORD27 /// SNORD28 /// SNORD29 /// SNORD31 / Fold change (Aza/veh), C12orf56 (ProbeSet 11735607_a_at) / Fold change (ACY-1035/veh), C12orf56 (ProbeSet 11735607_a_at) / Fold change (Aza/veh), FGFR1OP (ProbeSet 11751329_s_at) / Fold change (ACY-1035/veh), FGFR1OP (ProbeSet 11751329_s_at) / Fold change (Aza/veh), VPS36 (ProbeSet 11739960_a_at) / Fold change (ACY-1035/veh), VPS36 (ProbeSet 11739960_a_at) / RFU SYPL1 (11715823_x_at) / Fold change /veh SYPL1 (11715823_x_at) / RFU IGFBP7 (11715501_s_at) / Fold change /veh IGFBP7 (11715501_s_at) / RFU REEP3 (11722064_at) / Fold change /veh REEP3 (11722064_at) / RFU IGLL1 (11728026_x_at) / Fold change /veh IGLL1 (11728026_x_at): dose or concentration left out as unconfirmed
Conditions: MV-4-11 cells, 48 hours

Nc1ncn([C@@H]2O[C@H](CO)[C@@H](O)[C@H]2O)c(=O)n1 [azacitidine]
RFU KRTAP10-2 (11738614_at): 10.93 RFU
